Source: article PMC7658073 (Clinical Pharmacokinetics, 2020)
Entries after “also recorded” stand apart in the source; their conditions may differ.

Key:
Format in all cases: in vivo, human
[1] = Phase I DDI study with midazolam
[2] = Phase I DDI study with sacubitril/valsartan; details: vericiguat at steady state with sacubitril/valsartan
[3] = Phase I DDI study with sildenafil
[4] = midazolam with vericiguat 10 mg vs midazolam alone
[5] = sildenafil 100 mg with vericiguat vs with placebo

OCc1ncc2n1-c1ccc(Cl)cc1C(c1ccccc1F)=NC2 [1ʹ-hydroxy midazolam]
Decrease in AUC [1, 4]: 12%
Decrease in Cmax [1, 4]: 16%

C[C@H](C[C@@H](Cc1ccc(-c2ccccc2)cc1)NC(=O)CCC(=O)O)C(=O)O [LBQ657]
Increase in AUC0–12,md (exposure) [2]: unchanged; also recorded: unaffected
Increase in Cmax,md (peak concentration) [2]: unchanged; also recorded: unaffected

Cc1ncc2n1-c1ccc(Cl)cc1C(c1ccccc1F)=NC2 [Midazolam, reference compound]
Reduction in midazolam exposure ([1]; after 3 days pre-treatment and 1 day co-treatment with vericiguat 10 mg): 18%

CCOC(=O)[C@H](C)C[C@@H](Cc1ccc(-c2ccccc2)cc1)NC(=O)CCC(=O)O [Sacubitril, reference compound]
Increase in AUC0–12,md (exposure) [2]: 8%
Increase in Cmax,md (peak concentration) [2]: 18%

CCCc1nn(C)c2c(=O)[nH]c(-c3cc(S(=O)(=O)N4CCN(C)CC4)ccc3OCC)nc12 [Sildenafil, reference compound]
Increase in exposure of sildenafil [3, 5]: 13%
Increase in maximum concentration of sildenafil [3, 5]: 17%
Increase in exposure for sildenafil co-administered with vericiguat ([3]; sildenafil 25, 50 or 100 mg, vs sildenafil with placebo): ≤ 22.4%

CCCCC(=O)N(Cc1ccc(-c2ccccc2-c2nnn[nH]2)cc1)[C@H](C(=O)O)C(C)C [Valsartan, reference compound]
Increase in AUC0–12,md (exposure) [2]: 12%
Increase in Cmax,md (peak concentration) [2]: 13%
